Patent US20200163882A1, “Solid Pharmaceutical Compositions Of Androgen Receptor Antagonists” (Lek Pharmaceuticals d.d., priority 2014, published 2020)

Tests used:
[1] = Solubility of Enzalutamide in surfactants; type: physicochemical
Procedure: In the first reference test formulation, 12 mg of Enzalutamide was completely dissolved in 0.27 ml of Labrasol. In second reference test formulations 12 mg of Enzalutamide is completely dissolved in 0.27 ml of Tween 80. In third reference test formulation, 12 mg of Enzalutamide is completely dissolved in 0.27 ml of Tween 80 and 0.15 mg of HPMC has been added. It should be noted that solubility of Enzalutamide is about the same in Tween and in Labrasol ([…] of Enzalutamide per 1 ml of either Tween 80 or Labrasol). The three test formulations were dissolved in 15 ml of pH 6.8 phosphate buffer and Enzalutamide concentration was measured at time points from 10 to 360 minutes.

[2] = cited from earlier work; for Solubility in water: water between pH 1 and 11
[3] = physiologic pH range; cited from earlier work
[4] = first clinical trials, similar daily doses; cited from earlier work

CNC(=O)c1ccc(N2C(=S)N(c3ccc(C#N)c(C(F)(F)F)c3)C(=O)C2(C)C)cc1F [Enzalutamide, 4-{3-[4-Cyano-3-(trifluoromethyl)phenyl]-5,5-dimethyl-4-oxo-2-thioxoimidazolidin-1-yl}-2-fluoro-N-methylbenzamide]
Solubility of Enzalutamide in Labrasol ([1]; Labrasol): about 36 mg per 1 ml | Solubility of Enzalutamide in Tween 80 ([1]; Tween 80): about 36 mg per 1 ml | Solubility in N-methyl-2-pyrrolidone (NMP) [2]: soluble | Solubility in absolute ethanol [2]: sparingly soluble | Solubility in acetone [2]: soluble | Solubility in water [2]: practically insoluble | Ionisation state [3]: remain unionized

CNC(=O)c1ccc(N2C(=S)N(c3cnc(C#N)c(C(F)(F)F)c3)C(=O)C23CCC3)cc1F [ARN-509, 4-[7-[6-Cyano-5-(trifluoromethyl)pyridin-3-yl]-8-oxo-6-thioxo-5,7-diazaspiro[3.4]octan-5-yl]-2-fluoro-N-methylbenzamide]
Solubility in N-methyl-2-pyrrolidone (NMP) [2]: soluble | Solubility in absolute ethanol [2]: sparingly soluble | Solubility in acetone [2]: soluble | Solubility in water [2]: practically insoluble | Ionisation state [3]: remain unionized | Effectiveness versus Enzalutamide [4]: more effective than Enzalutamide
